# According to PMC9414302, “UPLC-ESI-QTRAP-MS/MS Analysis to Quantify Bioactive Compounds in Fennel (Foeniculum vulgare Mill.) Waste with Potential Anti-Inflammatory Activity” (Metabolites, 2022):
# Read-outs that look alike come from different tables or passages of the source.
# What was measured:
# COX-1 = biological target: T1, COX-1 (Ovis aries, UniProt P05979); assay: COX inhibitor screening fluorometric assay (COX-1); format: biochemical
# T1 construct: purchased Cayman Chemicals 700100
# T1 sequence (P05979 25-600): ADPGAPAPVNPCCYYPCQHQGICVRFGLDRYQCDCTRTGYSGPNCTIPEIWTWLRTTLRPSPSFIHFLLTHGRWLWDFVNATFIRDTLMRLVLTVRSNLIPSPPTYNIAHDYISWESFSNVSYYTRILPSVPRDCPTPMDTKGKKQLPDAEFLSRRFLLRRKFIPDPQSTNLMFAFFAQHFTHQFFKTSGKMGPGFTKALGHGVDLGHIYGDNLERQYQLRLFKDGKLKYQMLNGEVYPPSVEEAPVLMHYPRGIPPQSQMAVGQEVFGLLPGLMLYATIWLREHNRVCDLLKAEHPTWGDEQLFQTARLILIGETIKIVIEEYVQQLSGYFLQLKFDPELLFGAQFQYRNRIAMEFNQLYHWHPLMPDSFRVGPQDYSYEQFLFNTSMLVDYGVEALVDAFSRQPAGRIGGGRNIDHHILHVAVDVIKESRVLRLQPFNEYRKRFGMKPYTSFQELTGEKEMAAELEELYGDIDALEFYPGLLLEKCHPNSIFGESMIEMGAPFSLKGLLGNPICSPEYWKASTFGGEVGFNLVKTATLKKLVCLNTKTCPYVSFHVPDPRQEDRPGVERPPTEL
# Description: (§1) Anti-inflammatory activity was evaluated determining the capacity of some major metabolites of F. vulgare to inhibit the cyclooxygenase activity (COX). […] The assay uses the peroxidase component of COXs. The reaction between PGG2 and ADHP creates resorufin, a highly fluorescent compound. […] The inhibition of COXs is directly proportional to the reduction of resorufin fluorescence.
# (§2) The analyses were made in triplicate and the results are expressed as the mean of the IC50 (µM) ± the standard deviation.
# COX-2 = biological target: T2, COX-2 (Homo sapiens, UniProt P35354); assay: COX inhibitor screening fluorometric assay (COX-2); format: biochemical
# T2 construct: purchased Cayman Chemicals 700100
# T2 sequence (P35354 18-604): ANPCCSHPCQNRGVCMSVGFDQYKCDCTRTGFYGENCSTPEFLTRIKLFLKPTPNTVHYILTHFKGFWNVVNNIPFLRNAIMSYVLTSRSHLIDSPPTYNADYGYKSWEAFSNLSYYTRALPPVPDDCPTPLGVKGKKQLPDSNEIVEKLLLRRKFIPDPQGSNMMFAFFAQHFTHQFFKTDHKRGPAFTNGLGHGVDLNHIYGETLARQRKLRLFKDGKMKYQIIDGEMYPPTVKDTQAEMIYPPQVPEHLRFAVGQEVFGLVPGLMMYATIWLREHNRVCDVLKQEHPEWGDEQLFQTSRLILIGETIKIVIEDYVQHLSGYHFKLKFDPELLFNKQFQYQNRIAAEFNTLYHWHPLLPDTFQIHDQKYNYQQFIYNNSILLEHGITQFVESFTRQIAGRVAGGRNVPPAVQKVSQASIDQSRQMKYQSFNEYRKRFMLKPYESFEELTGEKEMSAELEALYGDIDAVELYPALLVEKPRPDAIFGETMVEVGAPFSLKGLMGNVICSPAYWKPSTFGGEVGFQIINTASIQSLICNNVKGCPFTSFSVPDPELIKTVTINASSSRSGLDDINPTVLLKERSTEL
# Description: as §1, §2
# [1] = fluorometric assay (resorufin, ex 535 nm / em 590 nm), mean of three determinations ± SD, metabolites tested at 25, 50, 100 and 150 µM, SC-560 at 2, 4, 8 and 10 nM
IC50 (COX-1; [1]),SMILES,IC50 (COX-1),IC50 (COX-2)
–,"O=c1c(O[C@@H]2O[C@H](CO)[C@@H](O)[C@H](O)[C@H]2O)c(-c2ccc(O)c(O)c2)oc2cc(O)cc(O)c12 [Quercetin glucoside, quercetin glucoside]",103 ± 8.66 µM,–
571 ± 40 µM,"O=C(O)[C@H]1O[C@@H](Oc2c(-c3ccc(O)c(O)c3)oc3cc(O)cc(O)c3c2=O)[C@H](O)[C@@H](O)[C@@H]1O [Quercetin glucuronide, quercetin glucuronide]",–,–
94.7 ± 1.22 µM,"COc1cc(-c2oc3cc(O)cc(O)c3c(=O)c2OC2OC(C(=O)O)C(O)C(O)C2O)ccc1O (stereo not drawn) [Isorhamnetin glucuronide, isorhamnetin glucuronide]",–,–
–,"O=C(/C=C/c1ccc(O)c(O)c1)OC1C(O)CC(OC(=O)/C=C/c2ccc(O)c(O)c2)(C(=O)O)CC1O (stereo not drawn) [Dicaffeoylquinic acid, dicaffeoylquinic acid]",85.6 ± 10.9 µM,14.8 ± 2.39 µM
228 ± 16.8 µM,"O=C(O)C1OC(Oc2c(-c3ccc(O)cc3)oc3cc(O)cc(O)c3c2=O)C(O)C(O)C1O (stereo not drawn) [Kaempferol glucuronide, kaempferol glucuronide]",–,–
